# Read-outs that look alike come from different tables or passages of the source.
# System: MRL/lpr lupus erythematosus model mice
# Format: in vivo
# Parameters: key to Kidney IHC (IgG) pathological score, bilateral kidneys: product score; 0 negative, 1-3 low, 4-8 medium, 9-12 high
# Conditions: for Area under the urine protein curve: 16 weeks; for Kidney HE pathological score of both kidneys, Activity index / Kidney HE pathological score of both kidneys, Chronicity index / Kidney HE pathological score of both kidneys, Tubulointerstitial lesions / Kidney IHC (IgG) pathological score, bilateral kidneys / Skin HE pathological score / Total kidney weight / Total kidney weight/body weight %: after 17 weeks of treatment; for IL-6 concentration in serum (ELISA) / Spleen weight / Spleen weight/body weight % / TNF-alpha concentration in serum (ELISA) / Total lymph node weight / Total lymph node weight/body weight %: end of the test
# Procedure: • female MRL/lpr mice aged 4 weeks, number: 50; • female C57BL/6 mice aged 4 weeks, number: 10.
# According to the concentration of the serum anti-ds-DNA antibody, female MRL/lpr mice were randomly divided into five groups: model group: solvent (aqueous solution containing 0.4% Tween 80 and 0.5% methylcellulose) 10 mL/kg BID, positive control group: prednisone 6 mg/kg QD, compound (I) 20, 40 and 60 mg/kg BID groups, the administration volumes respectively: 10 mL/kg. In addition, female C57BL/6 mice served as the normal control group. The animals in the Compound (I) group and the model group were administrated with the medicament or the solvent by gavage twice a day starting from the beginning of five weeks of age with an interval of 8 hours between two administrations; prednisone was administered to the animals by gavage once a day from the beginning of five weeks of age; the administration was totally performed for 17 weeks.
# Two mice in the model group died at 15 and 16 weeks of administration, respectively, and 8 mice remained at the end of the test; one mouse in the compound (I) 20 mg/kg bid group died in the later period of the 16th week of administration, and 9 mice remained at the end of the test; and no death of mice occurred in other groups.
# The skin destructions on the face, ears and back of mice were observed and scored once a week for 17 times totally.
# Scoring system: 1) red swelling and bleeding of the skin; 2) the extent of hair loss and skin dryness; 3) edema; 4) excoriation/corrosion; 5) lichenoid sclerotic plaque and other symptoms. The score of each item was as follows: normal=0 points; slight=1 point; moderate=2 points; severe=3 points. The severity of skin destruction was determined according to the total score of each evaluated symptom. […]
# The lymph nodes of MRL/lpr mice were scored once a week for a total of 17 times during the test.
# According to the lymph node diameter (cm), the score values were 0-6 points: • 0 point: normal; • 1 point: small (the diameter at one location of points on both sides was less than 1 cm); • 2 points: small (the diameters at two location of points on both sides were less than 1 cm); • 3 points: small (the diameters at three location of points on both sides were less than 1 cm); • 4 points: large (the diameter at one location of points on both sides was larger than 1 cm, the diameters at the other two location of points on both sides were less than 1 cm); • 5 points: large (the diameters at two location of points on both sides were larger than 1 cm, and the diameter at the other location of points on both sides was less than 1 cm); • 6 points: large (the diameters at three location of points on both sides were greater than 1 cm). […]
# Kidney HE scoring criteria: […]
# During the test, the concentration of serum anti-ds-DNA antibody of mice were detected every 4 weeks for 16 weeks.
# At the end of the test, the serum cytokine levels of mice were detected by ELISA. […] See Table 25 and FIG. 17 for details.
compound,measurement,setting,value
"NC(=O)c1cnc(Nc2ccc3c(c2)OC[C@H]2CN(S(=O)(=O)C4CC4)CCN32)nc1NC1CC1 [Compound (I), (R)-4-(cyclopropylamino)-2-((3-(cyclopropylsulfonyl)-1,2,3,4,4a,5-hexahydrobenzo[b]pyrazolo[1,2-d][1,4]oxazin-8-yl)amino)pyrimidine-5-arboxamide]",Area under the urine protein curve,20 mg/kg BID,5646.42 ± 587.29 wk*mg/L
same,"Kidney HE pathological score of both kidneys, Activity index",20 mg/kg BID,5.20 ± 0.73
same,"Kidney HE pathological score of both kidneys, Chronicity index",20 mg/kg BID,7.00 ± 0.54
same,"Kidney HE pathological score of both kidneys, Tubulointerstitial lesions",20 mg/kg BID,13.50 ± 0.52
same,"Kidney IHC (IgG) pathological score, bilateral kidneys",20 mg/kg BID,8.90 ± 0.72
same,Skin HE pathological score,20 mg/kg BID,3.56 ± 0.44
same,Total kidney weight,20 mg/kg BID,0.4146 ± 0.02 g
same,Total kidney weight/body weight %,20 mg/kg BID,1.1855 ± 0.05%
same,IL-6 concentration in serum (ELISA),20 mg/kg BID,52.38 ± 5.29 pg/mL
same,Spleen weight,20 mg/kg BID,0.4658 ± 0.04 g
same,Spleen weight/body weight %,20 mg/kg BID,1.3336 ± 0.11 %
same,TNF-alpha concentration in serum (ELISA),20 mg/kg BID,48.03 ± 4.12 pg/mL
same,Total lymph node weight,20 mg/kg BID,1.6823 ± 0.24 g
same,Total lymph node weight/body weight %,20 mg/kg BID,4.7396 ± 0.60%
same,Lymph node score,"20 mg/kg BID, week 0",0.0 ± 0.00
same,Skin score (skin destruction),"20 mg/kg BID, week 0",0.0 ± 0.00
same,Skin score (skin destruction),"20 mg/kg BID, week 4",0.0 ± 0.00
same,Lymph node score,"20 mg/kg BID, week 6",0.0 ± 0.00
same,Lymph node score,"20 mg/kg BID, week 7",0.6 ± 0.22
same,Skin score (skin destruction),"20 mg/kg BID, week 8",0.0 ± 0.00
same,Lymph node score,"20 mg/kg BID, week 9",2.0 ± 0.26
same,Lymph node score,"20 mg/kg BID, week 11",2.8 ± 0.29
same,Lymph node score,"20 mg/kg BID, week 12",3.0 ± 0.21
same,Skin score (skin destruction),"20 mg/kg BID, week 12",0.0 ± 0.00
same,Skin score (skin destruction),"20 mg/kg BID, week 14",0.2 ± 0.20
same,Skin score (skin destruction),"20 mg/kg BID, week 16",0.2 ± 0.13
same,Lymph node score,"20 mg/kg BID, week 17",3.6 ± 0.24
same,Skin score (skin destruction),"20 mg/kg BID, week 17",0.2 ± 0.15
same,Area under the urine protein curve,40 mg/kg BID,3851.50 ± 340.32 wk*mg/L
same,"Kidney HE pathological score of both kidneys, Activity index",40 mg/kg BID,4.00 ± 0.42
same,"Kidney HE pathological score of both kidneys, Chronicity index",40 mg/kg BID,7.60 ± 0.50
same,"Kidney HE pathological score of both kidneys, Tubulointerstitial lesions",40 mg/kg BID,12.30 ± 1.03
same,"Kidney IHC (IgG) pathological score, bilateral kidneys",40 mg/kg BID,7.40 ± 0.56
same,Skin HE pathological score,40 mg/kg BID,3.60 ± 0.37
same,Total kidney weight,40 mg/kg BID,0.3704 ± 0.01 g
same,Total kidney weight/body weight %,40 mg/kg BID,1.0997 ± 0.05%
same,IL-6 concentration in serum (ELISA),40 mg/kg BID,63.17 ± 12.60 pg/mL
same,Spleen weight,40 mg/kg BID,0.3184 ± 0.03 g
same,Spleen weight/body weight %,40 mg/kg BID,0.9485 ± 0.09 %
same,TNF-alpha concentration in serum (ELISA),40 mg/kg BID,32.29 ± 4.62 pg/mL
same,Total lymph node weight,40 mg/kg BID,0.7319 ± 0.12 g
same,Total lymph node weight/body weight %,40 mg/kg BID,2.1603 ± 0.35 %
same,Concentration of serum anti-ds-DNA antibody,"40 mg/kg BID, week 0",3.32 ± 0.39 µg/mL
same,Lymph node score,"40 mg/kg BID, week 0",0.0 ± 0.00
same,Skin score (skin destruction),"40 mg/kg BID, week 0",0.0 ± 0.00
same,Concentration of serum anti-ds-DNA antibody,"40 mg/kg BID, week 4",346.06 ± 35.04 µg/mL
same,Skin score (skin destruction),"40 mg/kg BID, week 4",0.0 ± 0.00
same,Lymph node score,"40 mg/kg BID, week 6",0.0 ± 0.00
same,Lymph node score,"40 mg/kg BID, week 7",0.3 ± 0.15
same,Concentration of serum anti-ds-DNA antibody,"40 mg/kg BID, week 8",885.04 ± 96.38 µg/mL
same,Skin score (skin destruction),"40 mg/kg BID, week 8",0.0 ± 0.00
same,Lymph node score,"40 mg/kg BID, week 9",0.7 ± 0.26
same,Lymph node score,"40 mg/kg BID, week 11",0.9 ± 0.23
same,Concentration of serum anti-ds-DNA antibody,"40 mg/kg BID, week 12",1390.83 ± 266.11 µg/mL
same,Lymph node score,"40 mg/kg BID, week 12",1.2 ± 0.25
same,Skin score (skin destruction),"40 mg/kg BID, week 12",0.0 ± 0.00
same,Skin score (skin destruction),"40 mg/kg BID, week 14",0.0 ± 0.00
same,Concentration of serum anti-ds-DNA antibody,"40 mg/kg BID, week 16",1198.59 ± 86.64 µg/mL
same,Skin score (skin destruction),"40 mg/kg BID, week 16",0.0 ± 0.00
same,Lymph node score,"40 mg/kg BID, week 17",1.5 ± 0.34
same,Skin score (skin destruction),"40 mg/kg BID, week 17",0.0 ± 0.00
same,Area under the urine protein curve,60 mg/kg BID,4138.70 ± 1048.57 wk*mg/L
same,"Kidney HE pathological score of both kidneys, Activity index",60 mg/kg BID,3.90 ± 0.75
same,"Kidney HE pathological score of both kidneys, Chronicity index",60 mg/kg BID,6.00 ± 0.75
same,"Kidney HE pathological score of both kidneys, Tubulointerstitial lesions",60 mg/kg BID,8.50 ± 0.91
same,"Kidney IHC (IgG) pathological score, bilateral kidneys",60 mg/kg BID,6.90 ± 0.28
same,Skin HE pathological score,60 mg/kg BID,2.60 ± 0.37
same,Total kidney weight,60 mg/kg BID,0.3639 ± 0.02 g
same,Total kidney weight/body weight %,60 mg/kg BID,1.1424 ± 0.07%
same,IL-6 concentration in serum (ELISA),60 mg/kg BID,35.99 ± 7.36 pg/mL
same,Spleen weight,60 mg/kg BID,0.2805 ± 0.03 g
same,Spleen weight/body weight %,60 mg/kg BID,0.8892 ± 0.10 %
same,TNF-alpha concentration in serum (ELISA),60 mg/kg BID,30.61 ± 4.72 pg/mL
same,Total lymph node weight,60 mg/kg BID,0.5680 ± 0.08 g
same,Total lymph node weight/body weight %,60 mg/kg BID,1.7879 ± 0.26 %
same,Concentration of serum anti-ds-DNA antibody,"60 mg/kg BID, week 0",3.33 ± 0.42 µg/mL
same,Lymph node score,"60 mg/kg BID, week 0",0.0 ± 0.00
same,Skin score (skin destruction),"60 mg/kg BID, week 0",0.0 ± 0.00
same,Concentration of serum anti-ds-DNA antibody,"60 mg/kg BID, week 4",249.26 ± 24.12 µg/mL
same,Skin score (skin destruction),"60 mg/kg BID, week 4",0.0 ± 0.00
same,Lymph node score,"60 mg/kg BID, week 6",0.0 ± 0.00
same,Lymph node score,"60 mg/kg BID, week 7",0.1 ± 0.10
same,Concentration of serum anti-ds-DNA antibody,"60 mg/kg BID, week 8",806.75 ± 110.22 µg/mL
same,Skin score (skin destruction),"60 mg/kg BID, week 8",0.0 ± 0.00
same,Lymph node score,"60 mg/kg BID, week 9",0.3 ± 0.15
same,Lymph node score,"60 mg/kg BID, week 11",0.4 ± 0.16
same,Concentration of serum anti-ds-DNA antibody,"60 mg/kg BID, week 12",1168.19 ± 113.75 µg/mL
same,Lymph node score,"60 mg/kg BID, week 12",0.5 ± 0.22
same,Skin score (skin destruction),"60 mg/kg BID, week 12",0.0 ± 0.00
same,Skin score (skin destruction),"60 mg/kg BID, week 14",0.0 ± 0.00
same,Concentration of serum anti-ds-DNA antibody,"60 mg/kg BID, week 16",1272.27 ± 50.19 µg/mL
same,Skin score (skin destruction),"60 mg/kg BID, week 16",0.0 ± 0.00
same,Lymph node score,"60 mg/kg BID, week 17",1.0 ± 0.26
same,Skin score (skin destruction),"60 mg/kg BID, week 17",0.0 ± 0.00
same,Mice died during the test,"mouse, in vivo",one

# — patent publication US20240165123A1, “USE OF A COMPOUND CONTAINING A TRICYCLIC HETEROARYL GROUP” (CSPC Zhongqi Pharmaceutical Technology (Shijiazhuang) Co., …, priority 2021, published 2024)
